Read-outs that look alike come from different tables or passages of the source.
Tested on: anticoagulation level (International Normalized Ratio)
Settings: for variation from low to high doses of warfarin / warfarin dose, low to high: across the first 24 measures
Experimental: Adult anticoagulation patients presenting to the practice site were informed of the study, and the opportunity to be a test subject. Subjects were required to complete a study entry data interview, provide informed consent, and present to the clinic once to twice weekly for INR evaluation. The control group and a second group (the algorithm group) of patients were provided warfarin alone as an anticoagulation agent, while the study group patients received warfarin and 100 μg of vitamin K in a single gelatin capsule from a single pharmacy. […] The study received clearance from the St. Mary's Medical Center Institutional Review Board, Galesburg, Ill.
An initial study interview was conducted and identified a patient's sex, age, indication for anticoagulation, and prescription and nonprescription medication usage. Those who were appropriate for study and provided consent were required to present to the clinic for once or twice weekly INR testing.
The control group (N=6) received their warfarin dosed by conventional tablet forms and presented to the office at least weekly for INR labs (more often if dosage changes were required).
The algorithm group (N=6) received their warfarin based upon an algorithm devised by the investigators to standardize the adjustments and the dosing of warfarin in smaller increments than those available in conventional dosages of oral medication (tablets). The algorithm specified dosages of warfarin other than those used by the manufacturer, in order for the prescribing physician to specify smaller incremental dosage changes than those permitted with the standard dosages available.
The purpose of having the algorithm group as a part of the study was to determine if the algorithm played a significant role in reducing nontherapeutic anticoagulation intervals. […] If a dosing adjustment was required due to a nontherapeutic INR, the dose of warfarin would be adjusted in a fixed increment and the time of the next INR set by reducing the interval.
The second theory behind the algorithm is that at the lower warfarin doses, the interval between easily taken amounts is a significant dose change. For example, the increase in dosage between 1 mg and 2 mg daily is a 100 percent dose increase. In comparison, the increase between the 4 mg tab and the 5 mg tab is a 25 percent dose increase. In order to create smaller dosage steps between doses of warfarin, the various available tablets were halved along their scoring lines and the appropriate amount was placed into a gelatin capsule for easy daily dosing. For instance, a dose of 1.75 mg warfarin required one-half of a 2.5 mg tablet and one-half of a 1 mg tab to be placed into a gelatin capsule. A cooperating compounding pharmacist placed the daily doses of warfarin into gelatin capsules for the use of the patients in the algorithm group.
The study group (N=12) received warfarin combined with 100 μg of vitamin K compounded into a gelatin capsule by the compounding pharmacist. The warfarin was dosed by the study algorithm, described above. Patients who randomized to this group received their current dose of warfarin along with the dose of vitamin K in the daily gelatin capsule. And as the INR fluctuated, the dose of warfarin was adjusted by the algorithm.
The combination of warfarin and vitamin K was accomplished by adding fixed amounts of each into an orally dosed form. The doses of warfarin used within the study protocol were (in milligrams): 0.5, 1, 1.25, 1.5, 1.75, 2.0, 2.25, 2.5, 2.75, 3.0, 3.25, 3.5, 3.75, 4.0, 4.5, 5.0, 5.5, 6.0, 6.5, 7.0, 7.5, 8.0, 8.5, 9.0, 9.5, 10, 11, 12, 13, 15.

[1] = algorithm only arm, average dose
[2] = combination capsule group (dosed by algorithm) or standard care group

CC(=O)CC(c1ccccc1)c1c(O)c2ccccc2oc1=O (centres unmarked) [warfarin alone, 3-(_-acetonylbenzyl)-4-hydroxycoumarin]
variation from low to high doses of warfarin [1]: 25.3%
warfarin dose, low to high [1]: 4.71-6.30 mgs
variation from low to high doses of warfarin [2]: 36.9%
warfarin dose, low to high [2]: 3.50-5.55 mgs
persons with a dosage change in their anticoagulation after a change in concomitant medical therapy (control and algorithm arms, includes two subjects who had this occur twice): Eight
number of clinically safe anticoagulation levels (INR level between 2.0 and 3.0) (over six months, INR at least weekly, up to 35 INR measurements, combination group N=12 (100 μg vitamin K) vs control and algorithm groups combined, p=0.032): 14.83
number of medically safe anticoagulation levels (INR level between 1.8 and 3.5) (over six months, INR at least weekly, combination group N=12 vs control and algorithm groups combined, p=0.048): 18.42
number of medically unsafe INRs (INR less than 1.5 or greater than 4.9) (over six months, combination group N=12 vs control and algorithm groups combined, p=0.054, not significant): 22.00

From US20050215625A9, “Combination therapy for anticoagulation” (priority 2003, published 2005)
